The results in this text go back to the supplement of paper PMC7801607.

For test [1], the system named is Plasmodium falciparum NF54 stage IV/V gametocytes. As to the method:
(§1)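 Dose-response IC50s: P. falciparum NF54 asexual (pLDH, 72 h; 6 means >6 µM), Dd2 asexual (SYBR Green I, 72 h, 1536-well; 5 means >5 µM), NF54 stage IV/V gametocytes (luciferase 48 h, ATP 24 h, PrestoBlue 48 h), P. berghei liver stage in HepG2-A16-CD81 (luciferase, 48 h; 5 means >5 µM), HepG2 CC50 (CellTiter-Glo; 5 means >5 µM).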

Test [2] has as its system Plasmodium berghei ANKA liver stage in HepG2-A16-CD81.
In test [3] the test system is Plasmodium falciparum Dd2 asexual blood stage.
For test [4], the system named is Plasmodium falciparum NF54 asexual blood stage.
The test system of test [5] is Plasmodium falciparum NF54 stage IV/V gametocytes. As to the method:
as §1
This is another data set of the same source.

The test system of the next test is HepG2-A16-CD81. Briefly: CC50; higher = less toxic. The method, then:
as §1

pIC50: −log10 of the molar value. Some results are limits rather than exact numbers.

As to `CC[C@H](NC(=O)[C@H](C)NC)C(=O)N1C[C@@H](O)C[C@H]1Cc1c(-c2[nH]c3cc(F)ccc3c2C[C@@H]2C[C@H](O)CN2C(=O)[C@H](CC)NC(=O)[C@H](C)NC)[nH]c2cc(F)ccc12`, the “IC50 (luciferase reporter)” value in test [1] was 5210 nM. In addition, the pIC50 (usually the negative decadic logarithm of the IC50, by convention in mol/L) is 6.89 in test [2], 6.63 in test [3] and 6.01 in test [4]. The “IC50 (ATP bioluminescence)” value in test [5] came out at 1530 nM. Moreover, the CC50 (usually the concentration that lowers cell viability or growth by half) with HepG2-A16-CD81 was greater than 5000 nM.
In the case of `N=C(N)NCCCCC(=O)Nc1cc(C(F)(F)F)cc(NC(=O)c2cc(C(=O)Nc3cc(C(F)(F)F)cc(NC(=O)CCCCNC(=N)N)c3O[C@@H]3CCNC3)ncn2)c1O[C@@H]1CCNC1`, in test [1], the “IC50 (luciferase reporter)” value was 6070 nM. For the same molecule, the pIC50 was 5.47 in test [3] and 5.66 in test [4].
In the case of `CCOC(=O)Nc1cc(NC(C)CC(C)CN(CC)CC)c2nc(-c3ccccc3)c(-c3ccccc3)nc2n1` (centres undefined), the “IC50 (luciferase reporter)” value in test [1] was 28600 nM. In addition, the pIC50 in test [3] is 5.39. Moreover, the “IC50 (ATP bioluminescence)” value in test [5] worked out at 4260 nM.
The like results for `O=C1C=C(c2ccccc2)S(=O)(=O)c2ccccc21` were, in that order, 25700 nM, less than 5.30 and 2160 nM.
Take `Cc1cccc(C)c1C(=O)Nc1nc(-c2ccccn2)cc2ccccc12`: the “IC50 (luciferase reporter)” value in test [1] came to 4030 nM. Besides, the negative logarithm of the IC50 (pIC50) was less than 5.30 in test [3] and less than 5.22 in test [4]. Also, the “IC50 (ATP bioluminescence)” value in test [5] turned out to be 496 nM.
For the molecule `Nc1nc(Nc2ccc3nc(-c4ccc(F)cc4)cc(N)c3c2)cc(-c2ccccc2)n1`, the “IC50 (luciferase reporter)” value in test [1] came out at 152 nM. The pIC50 in test [2] was less than 5.30; in test [3], 7.26; in test [4], 7.31. Besides, in test [5], the “IC50 (ATP bioluminescence)” value stood at 79.9 nM. In the test on HepG2-A16-CD81, this molecule had a half-maximal cytotoxic concentration (CC50) greater than 5000 nM.
In the case of `Clc1cc(Cl)c2c(c1)CCc1ccccc1C2n1ccnc1` (centres undefined), in test [1], the “IC50 (luciferase reporter)” value was found to be 7650 nM. For the same molecule, the negative logarithm of the IC50 (pIC50) is less than 5.30 in test [2], 5.47 in test [3] and 5.83 in test [4]. The “IC50 (ATP bioluminescence)” value in test [5] is 4230 nM. For the same molecule, the CC50 with HepG2-A16-CD81 was greater than 5000 nM.
In the case of `Cc1nc2ccc(Oc3ccccc3)cc2c2c1CCN2CCc1ccccc1`, the “IC50 (luciferase reporter)” value in test [1] was determined as 46300 nM. In addition, the results for the pIC50 in test [3] and in test [4] were less than 5.30 and 5.52, respectively. The “IC50 (ATP bioluminescence)” value in test [5] is 1130 nM.
The like results for `Oc1cccc(C(Nc2nccs2)c2ccc3cccnc3c2O)c1` (centres undefined) were, in that order, 15900 nM, less than 5.30, 5.46 and 5020 nM.
For `O=C(Nc1cccc(C2=NCCN2)c1)c1ccc(-c2ccc(C(=O)Nc3cccc(C4=NCCN4)c3)cc2)cc1`, the “IC50 (luciferase reporter)” value in test [1] turned out to be 480 nM. Moreover, the pIC50 was less than 5.30 in test [2], 7.71 in test [3] and 7.35 in test [4]. In the test with HepG2-A16-CD81, this molecule displayed a 50% cytotoxic concentration (CC50) greater than 5000 nM.
Regarding `N=c1n(CCN2CCCCC2)c2ccccc2n1CC(O)COc1ccc(Cl)cc1Cl` (centres undefined), in test [1], the “IC50 (luciferase reporter)” value was 3820 nM. Also, the pIC50 in test [2] was 5.55; in test [3], 6.08; in test [4], 5.97. Further, in test [5], the “IC50 (ATP bioluminescence)” value turned out to be 340 nM. Besides, the CC50 in the test with HepG2-A16-CD81 was greater than 5000 nM.
For the molecule `Oc1c(C(Nc2nc3ccccc3s2)c2ccc(OC(F)F)cc2)ccc2cccnc12` (centres undefined), in test [1], the “IC50 (luciferase reporter)” value came to 5400 nM. The values for the pIC50 in test [3] and in test [4] were 5.50 and 5.78, respectively.
With `O=C(/C(=C/c1ccc(Cl)cc1Cl)n1ccnc1)c1ccc(Cl)cc1`, the “IC50 (luciferase reporter)” value in test [1] is 7080 nM. For the same molecule, the results for the pIC50 in test [3] and in test [4] were 5.48 and 5.58, respectively. The “IC50 (ATP bioluminescence)” value in test [5] worked out at 824 nM.
Turning to `Cn1cc(NC(=O)c2cc(NC(=O)c3ccc(/C=C/c4cnc5ccccc5c4)cc3)cn2C)cc1C(=O)NCCN1CCOCC1`, in test [1], the “IC50 (luciferase reporter)” value was 103 nM. Further, the pIC50 in test [2] is 5.70; in test [3], 7.16; in test [4], 7.21. Besides, the CC50 in the test with HepG2-A16-CD81 is greater than 5000 nM.
For the molecule `COc1cc(C)c2c(Oc3cccc(C(F)(F)F)c3)c(OC)cc(NC(C)CCCN)c2n1` (centres undefined), in test [1], the “IC50 (luciferase reporter)” value was 7690 nM. The pIC50 is 5.48 in test [2], 6.30 in test [3] and 6.03 in test [4]. Further, the “IC50 (ATP bioluminescence)” value in test [5] amounted to 1400 nM. The CC50 with HepG2-A16-CD81 is greater than 5000 nM.
As for `N#Cc1c(F)c(Cl)c(NCc2ccccc2)c(C#N)c1F`, the “IC50 (luciferase reporter)” value in test [1] stood at 31600 nM. In addition, the pIC50 in test [3] was less than 5.30; in test [4] it was less than 5.22.
With `CCN(CC)CCn1c(=N)n(CC(O)COc2ccc(Cl)cc2Cl)c2ccccc21` (centres undefined), the “IC50 (luciferase reporter)” value in test [1] was determined as 3800 nM. Further, the pIC50 in test [2] is less than 5.30; in test [3] it was 6.10; in test [4], 6.17. The “IC50 (ATP bioluminescence)” value in test [5] came out at 350 nM. Moreover, the cytotoxic concentration (CC50) in the test on HepG2-A16-CD81 is greater than 5000 nM.
With `CN(C)CCCOc1ccc(-c2ccc3ncc4c(c3c2)n(C2CCOCC2)c(=O)n4C)cn1`, in test [1], the “IC50 (luciferase reporter)” value stood at 1670 nM. Also, the pIC50 is 5.98 in test [2], 6.11 in test [3] and 5.40 in test [4]. Also, in the test with HepG2-A16-CD81, the CC50 was greater than 5000 nM.
`CCCCC(CC)CNC(=N)NC(=N)NCCCCCCNC(=N)NC(=N)NCC(CC)CCCC` (centres undefined): in test [1], the “IC50 (luciferase reporter)” value stood at 1030 nM. The pIC50 in test [2] was 5.66; in test [3] it was 7.64; in test [4], 6.96. For the same molecule, the “IC50 (ATP bioluminescence)” value in test [5] amounted to 824 nM. Besides, the CC50 in the test on HepG2-A16-CD81 turned out to be 4140 nM.
As to `CCC(C)NCC(O)Cn1c2ccc(Cl)cc2c2cc(Cl)ccc21` (centres undefined), in test [1], the “IC50 (luciferase reporter)” value was 7640 nM. Further, the pIC50 in test [2] is less than 5.30; in test [3], 7.29; in test [4], 6.42. Also, in test [5], the “IC50 (ATP bioluminescence)” value stood at 2910 nM. Further, the CC50 in the test on HepG2-A16-CD81 is greater than 5000 nM.
